Publication PMC8780263, “Green by Design: Convergent Synthesis, Computational Analyses, and Activity Evaluation of New FXa Inhibitors Bearing Peptide Triazole Linking Units” (Pharmaceutics, 2021)
Like-named read-outs stand apart in the source and are kept apart here.

Experiments:
[1] = test system: HeLa cells; assay: Cell viability analysis, CCK-8 method, HeLa; type: cell-based, human; settings: 48 h; 10 mM, 100 μM, 10 μM, 100 nM, 10 nM
Protocol: (§1) The human cell lines (HEK293 and HeLa) applied in the cell viability assays were purchased from ATCC (Manassas, VA, USA). HEK293 and HeLa cell lines were cultivated in Dulbecco’s modified Eagle medium, supplemented with 10% fetal bovine serum, 100 units/mL of penicillin and […] of streptomycin and kept at 37 °C in a humidified atmosphere containing 5% CO2. A 100-μL aliquot of adherent cells was used to seed 96-well cell culture plates at 25,000 cells/well and allowed to adhere for 16 h prior to compound addition. Cells were treated with each compound in DMEM containing 10% FBS for 48 h. Subsequently, 10 μL of Cell Counting Kit-8 reagent (CCK-8; Sigma-Aldrich, Merck KGaA, Darmstadt Germany) was added into each well and incubated for 4 h at 37 °C in a humidified atmosphere containing 5% CO2. The absorbance measurement detected the cell viability at 450 nm in a Synergy H1 microplate reader (Biotek Instruments, Winooski, VT, USA). All experiments were performed in triplicate.
(§2) Cell viability assays were performed with HeLa and HEK293 cells using the CCK-8 method. Compounds 8a, 8k, 8l and 8p were assayed with decreasing concentrations: 10 mM (1), 100 μM (2), 10 μM (3), 100 nM (4) and 10 nM (5) (Figure 6).
(§3) Figure 6 Effect of the selected compounds on cell viability using the CCK-8 assay in (A) HeLa and (B) HEK93 cell lines. Concentrations used were 10 mM (1), 100 μM (2), 10 μM (3), 100 nM (4), and 10 nM (5). The upper and lower lines define ± 2 SD limits from the average value of control wells treated only with the vehicle (DMSO 2%). All values are means ± SD (n = 3). SD: standard deviation.

[2] = biological target: FXa enzyme (Bos taurus, UniProt P00743); assay: FXa in vitro inhibition assay (fluorometric SensoLyte Factor Xa Assay Kit); settings: for inhibition at 100 µM: read-out: %Inhibition FXa, inhibition percentage at 100 μM; for %Inhibition FXa: inhibition percentage at 100 μM
FXa enzyme, sequence (P00743 234-492 limits assumed): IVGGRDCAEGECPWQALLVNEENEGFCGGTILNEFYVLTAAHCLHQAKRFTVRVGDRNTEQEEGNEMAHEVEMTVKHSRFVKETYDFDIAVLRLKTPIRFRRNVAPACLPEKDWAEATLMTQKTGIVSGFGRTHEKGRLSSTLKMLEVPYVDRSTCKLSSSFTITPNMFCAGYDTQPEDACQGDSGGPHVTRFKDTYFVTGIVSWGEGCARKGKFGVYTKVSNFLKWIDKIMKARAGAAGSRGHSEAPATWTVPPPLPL
FXa enzyme, sequence (P00743 41-180 partner limits assumed): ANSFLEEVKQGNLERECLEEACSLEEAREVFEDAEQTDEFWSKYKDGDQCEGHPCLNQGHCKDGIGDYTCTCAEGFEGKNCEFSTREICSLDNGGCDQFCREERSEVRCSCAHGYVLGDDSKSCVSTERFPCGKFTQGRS
Protocol: The FXa inhibition capacities of the newly synthesized molecules were evaluated using the SensoLyte® 520 Factor Xa Assay Kit.

[3] = test system: HEK293 cells; assay: Cell viability analysis, CCK-8 method, HEK293; type: cell-based, human; settings: 48 h; 10 mM, 100 μM, 10 μM, 100 nM, 10 nM
Protocol: as §1, §2, §3

| SMILES | inhibition at 100 µM [2] [%] | melting point [°C] | also measured |
| --- | --- | --- | --- |
| O=C(Cn1cc(-c2ccc(Br)cc2)nn1)Nc1ccc(N2CCSCC2=O)c(F)c1 [Compound 8p] | ≥ 50 | – | toxicity in HeLa cells (cell viability, CCK-8) [1]: no signs of toxicity; IC50 [2]: 17.2 ± 0.8 µM; cell mortality in HEK-293 cells (cell viability, CCK-8) [3]: did not show any cell mortality |
| O=C(Cn1cc(-c2ccccc2)nn1)Nc1ccc(N2CCCCC2=O)c(F)c1 [Compound 8a] | ≥ 50 | – | toxicity in HeLa cells (cell viability, CCK-8) [1]: no signs of toxicity; IC50 [2]: 41.2 ± 1.2 µM; cell mortality in HEK-293 cells (cell viability, CCK-8) [3]: did not show any cell mortality |
| O=C(Cn1cc(-c2ccc(F)cc2)nn1)Nc1ccc(N2CCCCC2=O)c(F)c1 [Compound 8e] | 17 | – | – |
| O=C(Cn1cc(-c2ccccc2)nn1)Nc1ccc(N2CCOCC2=O)c(F)c1 [Compound 8c] | 17 | 254 to 255 | – |
| O=C(Cn1cc(-c2ccc(F)cc2)nn1)Nc1ccc(N2CCOCC2=O)c(F)c1 [Compound 8g] | 36 | 273 to 274 | – |
| CC(C)(C)OC(=O)N1CCN(c2ccc(NC(=O)Cn3cc(-c4ccc(Cl)cc4)nn3)cc2F)C(=O)C1 [Compound 8j] | – | – | %Inhibition FXa [2]: 23% |
| CC(C)(C)OC(=O)N1CCN(c2ccc(NC(=O)Cn3cc(-c4ccc(Br)cc4)nn3)cc2F)C(=O)C1 [Compound 8n] | – | – | %Inhibition FXa [2]: 22% |
| CCOC(=O)c1ccc(OC(=O)CCCCCN=C(N)N)cc1.CS(=O)(=O)O [Gabexate mesylate, reference compound] | – | – | IC50 ([2]; FXa, dilution series 1 nM to 100 μM, triplicates): 0.34 ± 0.1 µM; %Inhibition FXa [2]: 93% |
| O=C(Cn1cc(-c2ccc(F)cc2)nn1)Nc1ccc(N2CCSCC2=O)c(F)c1 [Compound 8h] | 25 | 266 to 267 | – |
| CC(C)(C)OC(=O)N1CCN(c2ccc(NC(=O)Cn3cc(-c4ccc(F)cc4)nn3)cc2F)C(=O)C1 [Compound 8f] | – | – | %Inhibition FXa [2]: 44% |
| O=C(Cn1cc(-c2ccccc2)nn1)Nc1ccc(N2CCSCC2=O)c(F)c1 [Compound 8d] | 33 | 276 to 277 | – |
| O=C(Cn1cc(-c2ccc(Cl)cc2)nn1)Nc1ccc(N2CCSCC2=O)c(F)c1 [Compound 8l] | ≥ 50 | – | toxicity in HeLa cells (cell viability, CCK-8) [1]: no signs of toxicity; IC50 [2]: 52.9 ± 5.5 µM; cell mortality in HEK-293 cells (cell viability, CCK-8) [3]: did not show any cell mortality |
| O=C(Cn1cc(-c2ccc(Cl)cc2)nn1)Nc1ccc(N2CCCCC2=O)c(F)c1 [Compound 8i] | 29 | 302 to 303 | – |
| O=C(Cn1cc(-c2ccc(Cl)cc2)nn1)Nc1ccc(N2CCOCC2=O)c(F)c1 [Compound 8k] | ≥ 50 | – | toxicity in HeLa cells (cell viability, CCK-8) [1]: no signs of toxicity; IC50 [2]: 76.2 ± 16.9 µM; cell mortality in HEK-293 cells (cell viability, CCK-8) [3]: did not show any cell mortality |
| CC(C)(C)OC(=O)N1CCN(c2ccc(NC(=O)Cn3cc(-c4ccccc4)nn3)cc2F)C(=O)C1 [Compound 8b] | 24 | 195 to 196 | – |

The next lines start with results.

| inhibition at 100 µM [2] [%] | melting point [°C] | SMILES | also measured |
| --- | --- | --- | --- |
| 29 | 300 to 301 | O=C(Cn1cc(-c2ccc(Br)cc2)nn1)Nc1ccc(N2CCCCC2=O)c(F)c1 [Compound 8m] | – |
| 31 | 285 to 286 | Cc1ccc(-c2cn(CC(=O)Nc3ccc(N4CCSCC4=O)c(F)c3)nn2)cc1 [Compound 8t] | – |
| 37 | 302 to 303 | O=C(Cn1cc(-c2ccc(Br)cc2)nn1)Nc1ccc(N2CCOCC2=O)c(F)c1 [Compound 8o] | – |
| 21 | 301 to 302 | Cc1ccc(-c2cn(CC(=O)Nc3ccc(N4CCCCC4=O)c(F)c3)nn2)cc1 [Compound 8q] | – |
| 37 | 282 to 283 | Cc1ccc(-c2cn(CC(=O)Nc3ccc(N4CCOCC4=O)c(F)c3)nn2)cc1 [Compound 8s] | – |
| 27 | 204 to 205 | Cc1ccc(-c2cn(CC(=O)Nc3ccc(N4CCN(C(=O)OC(C)(C)C)CC4=O)c(F)c3)nn2)cc1 [Compound 8r] | – |
